This note sets out measurements from US20110200545A1, “DEODORANT COMPOSITION AND METHODS FOR USE THEREOF” (priority 2010, published 2011).

One series concerns skin. Kind of series: application to skin, detrimental skin effects. The format is in vivo. From the text:
The low pKa results in an acidic solution having a pH of about 1.9, which damages skin and results in skin peeling in the hours and/or days following application to skin.
The pH of skin is about 5.5. When the pH of the skin surface is less than about 3.8, skin peeling results. Additionally, side effects of skin adjusted to a pH of less than about 3.8 include: skin inflammation, dermatitis, itching, and/or sensitizing of the skin.

Series [1] in a line: pH of acidic solution of the substance by itself. The format is physicochemical. Conditions: used by itself, unbuffered.

For `CC(=O)Oc1ccccc1C(=O)O` [acetylsalicyclic acid], in the series on skin (in a composition having a pH of about 3.8 or less), the “detrimental effects on skin” value is “an acid burn of the skin, inflammation, itching, sensitizing, dermatitis, and/or skin peeling”. The effect on skin entry in the series on skin (used by itself, hours and/or days following application to skin) was “acts as a skin peeler”. The “pH of acidic solution” value in series [1] is given as “about 1.9”.
